Source: article doi:10.1101/2022.12.01.518659v1 (biorxiv, 2022)
Counter-ions that a name gives are not always drawn.

Target: Atx3 13Q (Homo sapiens, UniProt P54252, OF/POLYQ/Q/TRACT)
Experiment: ThT fluorescence aggregation assay
Format: biochemical

Atx3 13Q, sequence (P54252 whole entry, change not shown): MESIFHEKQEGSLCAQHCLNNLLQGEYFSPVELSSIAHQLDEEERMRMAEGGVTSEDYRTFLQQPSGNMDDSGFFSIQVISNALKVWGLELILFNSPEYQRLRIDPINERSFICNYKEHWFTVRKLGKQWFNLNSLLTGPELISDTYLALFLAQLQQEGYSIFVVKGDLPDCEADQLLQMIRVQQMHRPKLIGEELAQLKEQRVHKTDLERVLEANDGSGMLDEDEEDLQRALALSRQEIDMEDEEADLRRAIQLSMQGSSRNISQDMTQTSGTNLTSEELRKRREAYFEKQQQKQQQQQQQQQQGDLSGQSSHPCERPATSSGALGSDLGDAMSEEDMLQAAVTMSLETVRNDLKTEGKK

Cc1ccc(C(=O)c2cc(O)c(O)c([N+](=O)[O-])c2)cc1 [tolcapone] was tested, and the IC50 was 20 nM.
In the case of NCCc1ccc(O)c(O)c1 [dopamine hydrochloride], the IC50 is reported as 110 nM.
Cc1cc(C2CCCCC2)n(O)c(=O)c1 [ciclopirox ethanolamine] showed an IC50 of 80 nM.
O=C(O)CN(CCN(CC(=O)O)CC(=O)O)CCN(CC(=O)O)CC(=O)O [pentetic acid] was tested, and the IC50 was 120 nM.
